Like-named read-outs stand apart in the source and are kept apart here.
Columns and labels:
KLK4 = molecular target: T1, KLK4 (Homo sapiens, UniProt Q9Y5K2); test: Selectivity screening, KLK4; assay type: biochemical; details: 50 μM compound, without Fe3+; read-out: percentage of inhibition KLK4
T1 construct: purchased R&D Systems

KLK11 = molecular target: T2, KLK11 (Homo sapiens, UniProt Q9UBX7); test: Selectivity screening, KLK11; assay type: biochemical; details: 50 μM compound, without Fe3+; read-out: percentage of inhibition KLK11
T2 construct: purchased R&D Systems
T2 sequence (Q9UBX7 54-282): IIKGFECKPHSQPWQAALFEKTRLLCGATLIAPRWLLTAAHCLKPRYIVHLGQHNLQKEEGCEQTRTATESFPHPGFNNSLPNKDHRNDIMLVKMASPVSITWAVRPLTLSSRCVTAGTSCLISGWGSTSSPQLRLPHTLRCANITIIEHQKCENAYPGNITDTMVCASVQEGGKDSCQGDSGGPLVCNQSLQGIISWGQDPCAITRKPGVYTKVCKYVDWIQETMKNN

KLK14 = molecular target: T3, KLK14 (Homo sapiens, UniProt Q9P0G3); test: Selectivity screening, KLK14; assay type: biochemical; details: 50 μM compound, without Fe3+; read-out: percentage of inhibition KLK14
T3 construct: purchased R&D Systems
T3 sequence (Q9P0G3 25-251): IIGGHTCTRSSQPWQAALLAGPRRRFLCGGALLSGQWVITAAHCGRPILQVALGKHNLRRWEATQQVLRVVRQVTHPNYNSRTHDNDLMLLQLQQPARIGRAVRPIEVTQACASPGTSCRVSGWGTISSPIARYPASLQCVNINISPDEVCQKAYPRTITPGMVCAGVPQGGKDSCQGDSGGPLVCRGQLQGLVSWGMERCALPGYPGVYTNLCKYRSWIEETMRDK

[1] = Calcein transchelation (calcein release) assay; assay type: physicochemical; details: calcein 100 nM, 4 h at room temperature; estimation, assay not fully quantitative; read-out: Apparent affinity (pseudo‐affinity constant Kd for Fe3+)
[2] = UV–vis spectroscopy of Fe3+ chelation and complex stability; assay type: physicochemical; details: activity buffer pH 7.4, 1:1 ratio, t = 0 to 240 min
Experimental: UV–vis analysis of DFX was first performed to monitor the chelation process and the stability of the Fe^3+ complex over time at a 1:1 ratio, typically representing the duration of inhibition assay (30 min to 4 h) (Figure S1, Supporting Information). In these conditions of pH (7.4) and ligand‐to‐iron ratio and according to Steinhauser et al. the main species in solution is assigned to [Fe(DFX)2]^3−.^[ [49] ^] Indeed, we aimed to explore not only the chelation properties but also the impact of the chelated species on enzyme inhibition.
2.c. Chelation properties, iron interactions, and selectivity profiles of selected compounds targeting KLK activity.
Figure S2: Stability of the chelated species as monitored by spectrophotometry. UV/VIS spectra of molecules alone using activity buffer at pH 7.4 (in orange at 500 µM) or in the presence of FeCl3 (ratio of 1:1) at different times (t = 0 in red, 30 min in black, 60 min in blue and 240 min in green). The purple trace corresponds to iron only at 500 µM All data are representative of 2 independent experiments performed in duplicate. […]

[3] = CCK8 cell viability assay, SH-SY5Y; assay type: cell-based; details: human, SH-SY5Y neuroblastoma cells, 25 and 50 μM, in absence or presence of iron (100 µM FAC), read-out: percentage of cell viability
Experimental: (§1) Human neuroblastoma cell line (SH-SY5Y) was purchased at American Type Culture Collection
(§2) Both cell lines were cultured in Dulbecco’s Modified Eagle Medium (DMEM)
(§3) containing 10% heat inactivated fetal bovine serum (FBS), 1% Penicillin/Streptomycin, 10 mM
(§4) Sodium Pyruvate, 2 mM L-Glutamine and 4,5 g/L D-glucose at 37°C, in a 5% humidified
(§5) incubator. Cells were cultivated until 80% confluence in flasks then were plated in 96-well
(§6) plates. For this experiment, SH-SY5Y were used at 10th passage and HMC3 at 13th. SH-SY5Y
(§7) cells were seeded at a density of 3x10^4 cells/well and HMC3 at a density of 10^4 cells/well. After
(§8) seeding, cells were left in complete medium overnight to adhere to the plates. After that, cells
(§9) were treated using inhibitors solubilized in DMSO at stock concentrations of 2,5 mM or 5 mM
(§10) with or without 10 mM iron. Iron solution was prepared by using FAC (Ferric Ammonium
(§11) Citrate, Sigma®) at stock concentration of 25 mM. After 24h of treatment, cell viability was
(§12) assessed with the CCK8 (Cell-Counting Kit 8) from TargetMol. After treatments, 10 µL of CCK8
(§13) reagent was diluted in 90 µL of complete medium and added to each well. After 3 hours at
(§14) 37°C, cell viability was assessed by absorbance measurement at 460 nm. Each viability assay
(§15) is the mean of two independent experiments performed in triplicates.
(§16) treated for 24h with the two selected concentrations of inhibitor (25 µM or 50 µM)
(§17) preincubated or not with 100 µM of FAC. The data are the mean of two independent
experiments performed in triplicates.

[4] = CCK8 cell viability assay, HMC3; assay type: cell-based; details: human, HMC3 microglial cells; HMC3, 24h, 25 and 50 μM, in absence or presence of iron (100 µM FAC); read-out: percentage of cell viability
Experimental: as §1, §2, §3, §4, §5, §6, §7, §8, §9, §10, §11, §12, §13, §14, §15, §16, §17
experiments performed in triplicates.

[5] = test system: KLK's of the CNS triad (KLK1‐KLK6‐KLK8); test: Reversibility analysis by dilution after preincubation; assay type: biochemical, human; details: 100-fold dilution after 15 min preincubation
Experimental: Aliquots of reaction mixtures (1 μL) were added to 99 μL of buffer containing the fluorogenic substrate (experimental conditions identical to the routine protocol used for a given enzyme). The mechanism of inhibition was determined by varying substrate and inhibitor concentrations, the type of inhibition and inhibition parameter (Ki or Ki′) are determined by Dixon's plots.

KLK5 = molecular target: T4, KLK5 (Homo sapiens, UniProt Q9Y337); test: Selectivity screening, KLK5; details: read-out: percentage of inhibition KLK5
T4 sequence (Q9Y337 67-293 limits assumed): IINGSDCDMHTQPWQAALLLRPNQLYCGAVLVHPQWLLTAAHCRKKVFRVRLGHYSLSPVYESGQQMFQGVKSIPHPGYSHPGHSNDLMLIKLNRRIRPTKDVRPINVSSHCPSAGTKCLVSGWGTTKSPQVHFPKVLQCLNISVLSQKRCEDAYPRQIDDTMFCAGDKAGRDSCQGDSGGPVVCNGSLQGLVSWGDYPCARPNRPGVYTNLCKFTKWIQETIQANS
Experimental: (§18) All enzyme stocks were stored at −20 °C and purchased from R&D Systems as proenzymes (KLK6, KLK8, KLK13) or as mature and active forms (KLK5). Activation of KLK6, KLK8, and KLK13 is performed in optimized buffers. The activation reaction is initiated by Lysyl‐Endopeptidase at 2.5 mU mL^−1 (Wako Bioproducts). The activation reaction is stopped by diluting the enzyme to 0.5 μg mL^−1 in assay buffer (50 mM Tris, 1 M Citrate, 0.05% w/v Brij‐35, pH 8) to obtain an active enzyme stock. KLK1 was purchased from R & D Systems as pro‐KLK1. Activation of KLK1 is performed in 50 mM Tris‐HCl, 10 mM CaCl2, 150 mM NaCl, 0.05% Brij‐35, pH 7.5. The activation reaction is initiated by bacterial thermolysin at 0.4 μg mL^−1 (Sigma‐Aldrich) and stopped by addition of 100 mM EDTA (Sigma‐Aldrich) to obtain an active KLK1 stock at the same concentration of 100 μg mL^−1. The activation reactions for KLK7 are initiated bacterial thermolysin at 0.4 μg mL^−1 (Sigma‐Aldrich) and stopped by addition of 100 mM EDTA (Sigma‐Aldrich) to obtain active stocks. All enzyme stocks were stored at −20 °C. H‐PFR‐AMC (KLK1), Boc‐VPR‐AMC (KLK5, KLK8, KLK13), Boc‐QAR‐AMC (KLK6, Plasmin), substrates were purchased from Bachem. MeO‐Suc‐RPY‐AMC (KLK7) substrate was purchased from AAT Bioquest. Plasmin (Sigma‐Aldrich) was purchased in mature and active form.
(§19) Compounds were screened on KLKs using a BMG Fluostar microplate reader (black 96‐well microplates). Hit compounds were screened on the selected group of enzymes using optimized concentrations and buffers (KLK1 0.8 nM, KLK4 10 nM, KLK5 0.2 nM; KLK6 1.9 nM; KLK7 6 nM; KLK8 0.2 nM; KLK11 5.2 nM, KLK13 0.47 nM, KLK14 2.5 nM, plasmin 3.3 nM, thrombin 0.1 nM, tissue‐plasminogen activator (tPA) 0.1 nM, matriptase 1 nM, cathepsin L 2 nM) either in absence or prior preincubation in the presence of 100 μM of Fe^3+.
(§20) The proteases are first preincubated for 15 min with each compound (50 and 100 μM) or with DMSO (<2%, negative control) in a total volume of 85 μL of 50 mM Tris buffer, 1 M citrate, 0.05% Brij‐35, pH 7, 37 °C. The reaction is triggered by the appropriate substrate at the optimized concentration in 15 μL of 50 mM Tris buffer, 1 M citrate, 0.05% Brij‐35, pH 8 (H‐PFR‐AMC 100 μM; Boc‐VPR‐AMC 100 μM; Boc‐QAR‐AMC 100 μM; Meo‐Suc‐RPY‐AMC 150 μM, Z‐LR‐AMC 100 μM, Z‐GGR‐AMC 100 μM) and followed for 30 min at 37 °C. […] The release of the AMC fluorescent group is detected using the following wavelengths: λex = 360 nm and λem = 460 nm. The percent inhibition is calculated from Equation (1) where V 0 is the initial rate of the DMSO control, the initial rate in the presence of the inhibitor V i. (1) %inhibition=(1−(vi/v0))×100

KLK13 = molecular target: T5, KLK13 (Homo sapiens, UniProt Q9UKR3); test: Selectivity screening, KLK13; details: read-out: percentage of inhibition KLK13
T5 sequence (Q9UKR3 26-277 limits assumed): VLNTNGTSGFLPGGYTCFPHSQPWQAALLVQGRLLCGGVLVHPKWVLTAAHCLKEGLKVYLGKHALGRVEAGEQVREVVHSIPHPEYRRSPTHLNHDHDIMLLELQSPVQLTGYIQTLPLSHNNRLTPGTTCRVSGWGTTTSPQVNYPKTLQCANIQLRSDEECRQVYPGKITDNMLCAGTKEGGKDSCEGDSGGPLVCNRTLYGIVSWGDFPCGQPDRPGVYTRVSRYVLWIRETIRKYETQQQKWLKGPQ
Experimental: as §18, §19, §20

KLK8 = molecular target: T6, KLK8 (Homo sapiens, UniProt O60259); test: KLK8 fluorogenic enzyme inhibition assay (Boc-VPR-AMC); details: for Ki′ KLK8 / Type of inhibition KLK8: Dixon plot, without Fe3+; for Ki′ KLK8: 100 μM substrate; for inhibition at 50 µM: read-out: percentage of inhibition KLK8
T6 sequence (O60259 33-260): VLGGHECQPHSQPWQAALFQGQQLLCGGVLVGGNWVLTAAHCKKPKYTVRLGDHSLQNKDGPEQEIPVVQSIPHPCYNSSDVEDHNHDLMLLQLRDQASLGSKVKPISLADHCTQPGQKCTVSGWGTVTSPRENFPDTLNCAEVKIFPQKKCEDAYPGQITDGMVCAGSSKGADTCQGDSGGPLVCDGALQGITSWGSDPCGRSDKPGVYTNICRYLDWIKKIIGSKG
Experimental: (§21) All enzyme stocks were stored at −20 °C and purchased from R&D Systems as proenzymes (KLK6, KLK8, KLK13) or as mature and active forms (KLK5). Activation of KLK6, KLK8, and KLK13 is performed in optimized buffers. The activation reaction is initiated by Lysyl‐Endopeptidase at 2.5 mU mL^−1 (Wako Bioproducts). The activation reaction is stopped by diluting the enzyme to 0.5 μg mL^−1 in assay buffer (50 mM Tris, 1 M Citrate, 0.05% w/v Brij‐35, pH 8) to obtain an active enzyme stock. KLK1 was purchased from R & D Systems as pro‐KLK1. Activation of KLK1 is performed in 50 mM Tris‐HCl, 10 mM CaCl2, 150 mM NaCl, 0.05% Brij‐35, pH 7.5. The activation reaction is initiated by bacterial thermolysin at 0.4 μg mL^−1 (Sigma‐Aldrich) and stopped by addition of 100 mM EDTA (Sigma‐Aldrich) to obtain an active KLK1 stock at the same concentration of 100 μg mL^−1. […] All enzyme stocks were stored at −20 °C. H‐PFR‐AMC (KLK1), Boc‐VPR‐AMC (KLK5, KLK8, KLK13), Boc‐QAR‐AMC (KLK6, Plasmin), substrates were purchased from Bachem. […] Plasmin (Sigma‐Aldrich) was purchased in mature and active form.
as §19, §20
(§22) The equation is entered in the Kaleidagraph 4.5 software for curve fitting f([I]) = % Inhibition, where [I] is the inhibitor concentration.
(§23) The mechanism of inhibition was determined by varying substrate and inhibitor concentrations, the type of inhibition and inhibition parameter (Ki or Ki′) are determined by Dixon's plots.

KLK7 = KLK7 (Homo sapiens, UniProt P49862); test: Selectivity screening, KLK7; details: read-out: percentage of inhibition KLK7
KLK7, sequence (P49862 30-253): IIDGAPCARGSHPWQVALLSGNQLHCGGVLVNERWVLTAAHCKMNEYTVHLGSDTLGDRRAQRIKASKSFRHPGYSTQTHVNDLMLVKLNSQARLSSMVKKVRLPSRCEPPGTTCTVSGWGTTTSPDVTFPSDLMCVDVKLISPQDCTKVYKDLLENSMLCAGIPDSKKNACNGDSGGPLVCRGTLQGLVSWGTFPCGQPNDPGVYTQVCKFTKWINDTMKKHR
Experimental: as §18
(§24) Compounds were screened on KLKs using a BMG Fluostar microplate reader (black 96‐well microplates). […]
(§25) The proteases are first preincubated for 15 min with each compound (50 and 100 μM) or with DMSO (<2%, negative control) in a total volume of 85 μL of 50 mM Tris buffer, 1 M citrate, 0.05% Brij‐35, pH 7, 37 °C. […] The release of the AMC fluorescent group is detected using the following wavelengths: λex = 360 nm and λem = 460 nm. The percent inhibition is calculated from Equation (1) where V 0 is the initial rate of the DMSO control, the initial rate in the presence of the inhibitor V i. […]

[6] = test system: targeted KLKs (KLK1, KLK6, KLK8); test: Impact of preincubated compound (50 μM) and Fe3+ (100 μM) on targeted KLKs; assay type: biochemical, human; details: compound 50 μM preincubated with Fe3+ 100 μM
Experimental: Next, we evaluated the impact of preincubated mixtures of each compound at 50 μM and Fe^3+ at 100 μM to model an iron overload condition on targeted KLKs (Figure S5, Supporting Information).

Cathepsin L = Cathepsin L (Homo sapiens, UniProt P07711); test: Selectivity screening, cathepsin L; assay type: biochemical; details: 50 μM compound, without Fe3+; read-out: percentage of inhibition Cathepsin L
Cathepsin L, sequence (P07711 114-333, species assumed): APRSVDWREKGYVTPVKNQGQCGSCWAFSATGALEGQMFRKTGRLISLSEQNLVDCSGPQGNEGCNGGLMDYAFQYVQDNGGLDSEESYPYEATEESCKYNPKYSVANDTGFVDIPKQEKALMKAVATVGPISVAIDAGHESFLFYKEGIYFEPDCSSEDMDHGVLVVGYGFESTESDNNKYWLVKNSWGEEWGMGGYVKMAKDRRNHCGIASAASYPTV

Plasmin = Plasmin (Homo sapiens, UniProt P00747); test: Selectivity screening, plasmin; details: read-out: percentage of inhibition Plasmin
Plasmin, sequence (P00747 581-810 limits assumed, species assumed): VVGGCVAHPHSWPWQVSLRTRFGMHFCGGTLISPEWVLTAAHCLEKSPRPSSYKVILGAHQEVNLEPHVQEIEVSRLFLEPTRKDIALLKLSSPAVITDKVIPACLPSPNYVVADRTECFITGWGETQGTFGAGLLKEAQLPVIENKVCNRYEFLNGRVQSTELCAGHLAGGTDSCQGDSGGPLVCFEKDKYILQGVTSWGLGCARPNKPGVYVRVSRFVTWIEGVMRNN
Plasmin, sequence (P00747 97-580 partner limits assumed, species assumed): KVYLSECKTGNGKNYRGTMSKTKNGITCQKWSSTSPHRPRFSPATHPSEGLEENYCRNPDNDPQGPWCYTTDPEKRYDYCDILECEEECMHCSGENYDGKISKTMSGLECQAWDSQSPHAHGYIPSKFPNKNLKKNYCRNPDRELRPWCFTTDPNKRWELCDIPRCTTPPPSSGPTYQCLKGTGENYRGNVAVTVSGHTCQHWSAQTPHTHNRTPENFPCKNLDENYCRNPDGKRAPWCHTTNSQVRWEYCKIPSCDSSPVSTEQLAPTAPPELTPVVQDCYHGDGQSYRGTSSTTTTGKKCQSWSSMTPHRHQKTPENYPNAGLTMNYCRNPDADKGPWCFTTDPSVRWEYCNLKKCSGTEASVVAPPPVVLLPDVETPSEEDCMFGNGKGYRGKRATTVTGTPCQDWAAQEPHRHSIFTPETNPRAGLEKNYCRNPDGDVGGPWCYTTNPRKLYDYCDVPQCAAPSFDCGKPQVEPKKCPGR
Experimental: All enzyme stocks were stored at −20 °C and purchased from R&D Systems as proenzymes (KLK6, KLK8, KLK13) or as mature and active forms (KLK5). Activation of KLK6, KLK8, and KLK13 is performed in optimized buffers. The activation reaction is initiated by Lysyl‐Endopeptidase at 2.5 mU mL^−1 (Wako Bioproducts). The activation reaction is stopped by diluting the enzyme to 0.5 μg mL^−1 in assay buffer (50 mM Tris, 1 M Citrate, 0.05% w/v Brij‐35, pH 8) to obtain an active enzyme stock. KLK1 was purchased from R & D Systems as pro‐KLK1. Activation of KLK1 is performed in 50 mM Tris‐HCl, 10 mM CaCl2, 150 mM NaCl, 0.05% Brij‐35, pH 7.5. […]
as §24, §25

KLK1 = KLK1 (Homo sapiens, UniProt P06870); test: KLK1 fluorogenic enzyme inhibition assay (H-PFR-AMC); details: for inhibition at 50 µM: read-out: percentage of inhibition KLK1; for IC50: IC50 KLK1, 15 min preincubation at 37 °C, NI = not a hit (not above 50% inhibition at 50 μM)
KLK1, sequence (P06870 25-262): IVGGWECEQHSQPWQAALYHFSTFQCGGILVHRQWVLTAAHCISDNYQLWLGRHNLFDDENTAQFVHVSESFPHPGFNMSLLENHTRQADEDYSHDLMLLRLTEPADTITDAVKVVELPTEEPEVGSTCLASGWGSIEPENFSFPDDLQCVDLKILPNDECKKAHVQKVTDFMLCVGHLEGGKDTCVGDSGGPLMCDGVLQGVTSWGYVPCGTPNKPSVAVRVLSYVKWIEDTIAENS
Experimental: as §21, §19, §20, §22, §23

Thrombin = Thrombin (Homo sapiens, UniProt P00734); test: Selectivity screening, thrombin; assay type: biochemical; details: 50 μM compound, without Fe3+; read-out: percentage of inhibition Thrombin
KLK6 = KLK6 (Homo sapiens, UniProt Q92876); test: KLK6 fluorogenic enzyme inhibition assay (Boc-QAR-AMC)
Experimental: as §21, §19, §20, §22, §23

[7] = IC50 KLK8, 15 min preincubation at 37 °C, NI = not a hit (not above 50% inhibition at 50 μM)

T1 sequence (Q9Y5K2 31-254): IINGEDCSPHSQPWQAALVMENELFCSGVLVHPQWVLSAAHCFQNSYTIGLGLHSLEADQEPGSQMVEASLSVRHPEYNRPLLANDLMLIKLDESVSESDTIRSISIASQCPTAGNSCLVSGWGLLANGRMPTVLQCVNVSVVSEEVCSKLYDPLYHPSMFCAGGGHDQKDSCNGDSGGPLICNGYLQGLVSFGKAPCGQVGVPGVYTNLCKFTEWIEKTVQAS

SMILES	inhibition at 50 µM (KLK4) [%]	inhibition at 50 µM (KLK11) [%]	inhibition at 50 µM (KLK14) [%]	Kd [1] [nM]	viability at 24 h [3] [%]	viability at 24 h [4] [%]	reversibility and time dependence of inhibition [5]	inhibition at 50 µM (KLK5) [%]	inhibition at 50 µM (KLK13) [%]	Ki′ KLK8 (KLK8) [µM]	Type of inhibition KLK8 (KLK8)	inhibition at 50 µM (KLK8) [%]	inhibition at 50 µM (KLK7) [%]	IC50 (KLK8) [µM]	change of inhibitory activity in the presence of iron [6]	also measured
O=C(O)c1ccc(-n2nc(-c3ccccc3O)nc2-c2ccccc2O)cc1 [3a, Deferasirox]	80.6	90.6	94.2	0.549 ± 0.007	> 80	> 80	reversible and time‐independent inhibitors	85.1	95.1	8	Uncompetitive	70.1				UV–vis spectrum in the presence of FeCl3 (iron complex formation) [2]: appearance of an absorption band with a maximum at 468 nm; Type of inhibition KLK8 (KLK8; listed as DFX): uncompetitive inhibition; IC50 (KLK8; [7]): 29.2 ± 1 µM; IC50 (KLK8; IC50 KLK8, initial screening of an in‐house array of 1,2,4‐triazole derivatives): ~30 µM
O=C(O)c1cccc(-n2nc(-c3ccccc3O)nc2-c2ccccc2O)c1 [3b]	83.8	90.9	95.1	0.063 ± 0.011	> 80	> 80	reversible and time‐independent inhibitors	98.1		18	Uncompetitive	62.1	88.1	21.4 ± 0.4		
Oc1ccccc1-c1n[nH]c(-c2ccccc2O)n1 [3c]				0.032 ± 0.012											significant higher inhibitory potency in the presence of Fe^3+ on all KLKs	IC50 (KLK8; [7]): > 50 µM
CC(C)(C)n1nc(-c2ccccc2O)nc1-c1ccccc1O [3d]				2.15 ± 0.11										> 50	do not show an increased inhibitory activity in the presence of iron	
O=C(NC(Cc1c[nH]c2ccccc12)C(=O)O)c1ccc(-n2nc(-c3ccccc3O)nc2-c2ccccc2O)cc1 (stereo not shown) [3lb]	99.7	81.4	98.8		> 80	> 80	reversible and time‐independent inhibitors	98.2	98.1			50.2	90.5	27.1 ± 1.1		inhibition at 50 µM (Cathepsin L): < 50%; inhibition at 50 µM (Plasmin): 60.5%; inhibition at 50 µM (KLK1): 90.1%; Ki (KLK8): 12 µM
O=C(O)C1CCCN1C(=O)c1ccc(-n2nc(-c3ccccc3O)nc2-c2ccccc2O)cc1 (stereo not shown) [3mb]	77.3	76.7	89.7	0.029 ± 0.017	> 80	> 80	reversible and time‐independent inhibitors	95.1	85.2	25	uncompetitive inhibition	63.1	70.1	25.9 ± 0.7		inhibition at 50 µM (Thrombin): 61.1%
Oc1ccc(-n2nc(-c3ccccc3O)nc2-c2ccccc2O)cc1 [3r]	84.3		62.2	0.062 ± 0.014	> 80	> 80	reversible and time‐independent inhibitors	85.5	98.3					> 50		inhibition at 50 µM (Thrombin): < 50%; Ki (KLK1): 29 µM; Type of inhibition KLK1 (KLK1; Dixon plot, without Fe3+): Noncompetitive; IC50 (KLK1): 16.4 ± 1.3 µM; inhibition at 50 µM (KLK1): 79.1%; inhibition at 50 µM (KLK6; read-out: percentage of inhibition KLK6): < 50%
CC(=O)Oc1ccccc1-c1nc(-c2ccccc2OC(C)=O)n(-c2ccc(C(=O)O)cc2)n1 [compound 22]														> 50	do not show an increased inhibitory activity in the presence of iron	UV–vis spectrum in the presence of FeCl3 (iron complex formation) [2]: no changes in the absorption spectra; IC50 (KLK1): > 50 µM; IC50 (KLK6): > 50 µM
